For experiment [1], the target named is T1, 3-oxo-5-alpha-steroid 4-dehydrogenase 2 (Homo sapiens, UniProt P31213).
T1 sequence (P31213 whole entry): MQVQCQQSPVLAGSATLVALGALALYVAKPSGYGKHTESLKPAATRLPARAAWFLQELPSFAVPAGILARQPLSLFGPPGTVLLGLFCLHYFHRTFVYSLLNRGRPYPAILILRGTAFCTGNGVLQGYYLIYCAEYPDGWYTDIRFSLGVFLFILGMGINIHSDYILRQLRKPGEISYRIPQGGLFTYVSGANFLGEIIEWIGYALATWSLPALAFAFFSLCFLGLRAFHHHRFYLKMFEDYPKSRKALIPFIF
As to the kind of experiment: Inhibition of human prostate 5alpha-reductase type 2 assessed as formation dihydrotestosterone from [4-14C] testosterone. In kind it is tissue-based, Prostate gland.

Experiment [2] deals with T2, 3-oxo-5-alpha-steroid 4-dehydrogenase 2 (Homo sapiens) (UniProt P31213).
T2 sequence (whole entry): T1 sequence (P31213 whole entry)
As to the kind of experiment: Inhibition of human prostate 5alpha-reductase type 2 assessed as formation dihydrotestosterone from [4-14C] testosterone relative to finasteride. As to conditions: Prostate gland.

From ChEMBL document CHEMBL1641415, “Discovery of a novel hybrid from finasteride and epristeride as 5α-reductase inhibitor” (Bioorg Med Chem Lett, 2011) come the findings set out here.

The structures appear in SMILES notation.

By IC50 is commonly meant the concentration at which inhibition is half-maximal. Turning to `C[C@]12CC[C@@H]3c4ccc(O)cc4CC[C@H]3[C@@H]1CCC(=O)N2`, the IC50 in experiment [1] was greater than 1000 nM. Also, in experiment [2], the Ratio is less than 0.055.
As to `C[C@]12CCC(C(=O)O)=CC1=CC[C@@H]1[C@@H]2CC[C@]2(C)NC(=O)CC[C@@H]12`, the IC50 in experiment [1] is 71 nM. Moreover, the Ratio in experiment [2] came out at 0.49.
Turning to `CC(C)(C)NC(=O)[C@H]1CC[C@H]2[C@@H]3CC[C@H]4NC(=O)C=C[C@]4(C)[C@H]3CC[C@]12C` [FINASTERIDE], the IC50 in experiment [1] was 35 nM.
Consider `C[C@]12CC[C@@H]3c4ccc(OS(=O)(=O)O)cc4CC[C@H]3[C@@H]1CCC(=O)N2`, for which, in experiment [1], the IC50 is greater than 1000 nM. Also, the Ratio in experiment [2] is less than 0.055.
